Experimental data as given in patent US7276480B1, “Prevention and reduction of blood loss” (Dyax Corp., priority 2005, dated 2007).
No end group written: not given here.

Biological target: human plasma kallikrein (Homo sapiens, UniProt P03952)
Test: Affinity (Ki,app) for plasma proteases, Table 1
Assay type: biochemical

Sequence of human plasma kallikrein (P03952 391-638 limits assumed): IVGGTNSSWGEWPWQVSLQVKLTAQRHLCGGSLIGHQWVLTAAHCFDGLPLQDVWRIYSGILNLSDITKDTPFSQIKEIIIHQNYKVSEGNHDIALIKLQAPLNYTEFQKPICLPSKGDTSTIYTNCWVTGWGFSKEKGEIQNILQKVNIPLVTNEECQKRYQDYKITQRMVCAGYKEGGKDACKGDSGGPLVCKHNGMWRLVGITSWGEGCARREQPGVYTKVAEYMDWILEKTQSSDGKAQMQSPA
Sequence of human plasma kallikrein (P03952 20-390 limits assumed): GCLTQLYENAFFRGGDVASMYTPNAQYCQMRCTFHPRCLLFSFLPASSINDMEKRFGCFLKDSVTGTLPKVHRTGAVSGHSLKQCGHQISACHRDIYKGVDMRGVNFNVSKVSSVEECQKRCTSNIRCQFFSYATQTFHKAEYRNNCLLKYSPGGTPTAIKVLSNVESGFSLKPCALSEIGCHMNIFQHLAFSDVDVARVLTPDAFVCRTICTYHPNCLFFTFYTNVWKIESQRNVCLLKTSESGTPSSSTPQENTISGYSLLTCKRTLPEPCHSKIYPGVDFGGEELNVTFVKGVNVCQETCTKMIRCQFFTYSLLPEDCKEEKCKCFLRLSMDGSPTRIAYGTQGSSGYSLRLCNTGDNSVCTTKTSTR

Substance | concentration in the plasma required to inhibit 99% of the kallikrein at 1 nM (kallikrein 1 nM, 99% inhibition) | Ki (read-out: Ki,app, human plasma kallikrein) [nM] | specificity among kallikrein and eleven other plasma proteases (from Table 1) | affinity (Ki,app) for kallikrein relative to the affinity of aprotinin (ratio versus aprotinin) [times higher]
aprotinin | at least 3 mu.M | 30 | – | –
PEP-1: non-naturally occurring KI polypeptide, 60-amino acid sequence of SEQ ID NO:2, recombinant from Pichia pastoris (EAMHSFCAFKADDGPCRAAHPRWFFNIFTRQCEEFIYGGCEGNQNRFESLEECKKMCTRD; ends and bridges not checked; cysteine pairing not given here) | – | – | highly specific for human plasma kallikrein | 1000
